Data taken from patent US7910577B2 (priority 2004, dated 2011).

Key:
[1] = particle size, Horiba LA 910 particle size analyzer; conditions: unmilled drug crystals, before incorporation into nanoparticulate formulation
[2] = cited from earlier work

For `Cc1cc2c(s1)Nc1ccccc1N=C2N1CCN(C)CC1` [Olanzapine, 2-methyl-4-(4-methyl-1-piperazinyl) -10H-thieno[2,3-b][1,5]benzodiazepine], the mean particle size [1] is given as 137.08 microns and the solubility in water [2] is given as “practically insoluble in water”.
